Assay [1] relates to Staphylococcus aureus (S. aureus) 11540 strain. The assay is described as follows: standard microdilution assay to determine MIC against S. aureus. The format is cell-based. How it is done:
(§1) The in vitro activity of the compounds of the present disclosure can be determined. Antimicrobial testing is typically performed to determine the minimum inhibitory concentration (MIC). Minimum inhibitory concentrations (MICs) are determined by the microdilution method in a final volume of 100 μl according to protocols outlined by The Clinical and Laboratory Standards Institute (CLSI). Performance standards for reference strains are assessed within the same experimental design to maintain quality control. See, for example, Clinical Laboratory Standards Institute: Methods for dilution antimicrobial susceptibility tests for bacteria that grow aerobically M7-A8. Approved Standard-Eighth Edition. Wayne, Pa.: CLSI; December 2008; and Clinical Laboratory Standards Institute: Performance Standards for Antimicrobial Susceptibility Testing M100-S20; Approved Standard-Twentieth Edition. Wayne, Pa.: CLSI; June 2010. The compounds of the present disclosure were tested for antimicrobial activity. The Compounds 1-105 were run against Escherichia coli (E. coli) strain ATCC25922 and against Staphylococcus aureus (S. aureus) 11540 strain using a standard microdilution assay to determine minimum inhibitory concentrations (MICs). […] It will be recognized by one skilled in the art that the compounds can be assessed against other bacterial organisms and that the presentation of data for activity against Escherichia coli and Staphylococcus aureus are illustrative and in no way is intended to limit the scope of the present disclosure. The compounds of the present disclosure can be assayed against a range of other microorganisms depending upon the performance activity desired to be gathered. Furthermore, the “+” and “−” representation and the selection of a cutoff value of 16 micrograms/mL is also illustrative and in no way is intended to limit the scope of the present disclosure.

For assay [2], the system named is Escherichia coli (E. coli) strain ATCC25922. Description: standard microdilution assay to determine MIC against E. coli. The format is cell-based. The procedure: as §1
For orientation: Dilution methods test growth across graded concentrations, often in twofold steps.

Usually MIC stands for the lowest concentration that inhibits growth of the organism. Higher therefore signals a less susceptible organism. Turning to `CC(C)CN1[C@H](CCOC(=N)N)CCC[C@H]1c1ccc(-n2cc3cc(-c4cc(CCC[C@H](C)N)cc(Cl)c4F)[nH]c3nc2=O)cc1` [Compound 10], the MIC in assay [1] and in assay [2] was at most 16 mg/L throughout.
`C[C@H](N)CCCc1cc(Cl)c(F)c(-c2cc3cn(-c4ccc([C@@H]5CCC[C@@H](CCOC(=N)N)N5CCCSC(=N)N)cc4)c(=O)nc3[nH]2)c1` [Compound 15]: the MIC in assay [1] and in assay [2] was at most 16 mg/L throughout.
On to `COCCN1[C@H](CCOC(=N)N)CCC[C@H]1c1ccc(-n2cc3cc(-c4cc(CCC[C@H](C)N)cc(Cl)c4F)[nH]c3nc2=O)cc1` [Compound 6], for which the MIC in assay [1] and in assay [2] was at most 16 mg/L in each case.
Regarding `CSCCN1[C@H](CCOC(=N)N)CCC[C@H]1c1ccc(-n2cc3cc(-c4cc(CCC[C@H](C)N)cc(Cl)c4F)[nH]c3nc2=O)cc1` [Compound 8], the MIC in assay [1] and in assay [2] was at most 16 mg/L throughout.
For the compound `C[C@H](N)CCCc1cc(Cl)c(F)c(-c2cc3cn(-c4ccc([C@@H]5CCC[C@@H](CCOC(=N)N)N5CCF)cc4)c(=O)nc3[nH]2)c1` [Compound 5], the MIC in assay [1] and in assay [2] was at most 16 mg/L throughout.
Regarding `C[C@H](N)CCCc1cc(Cl)c(F)c(-c2cc3cn(-c4ccc([C@@H]5CCC[C@@H](CCOC(=N)N)N5CCC5CC5)cc4)c(=O)nc3[nH]2)c1` [Compound 9], the MIC in assay [1] and in assay [2] was at most 16 mg/L throughout.
In the case of `C[C@H](N)CCCc1cc(Cl)c(F)c(-c2cc3cn(-c4ccc([C@@H]5CCC[C@@H](CCOC(=N)N)N5CCC5CCOCC5)cc4)c(=O)nc3[nH]2)c1` [Compound 4], the MIC in assay [1] and in assay [2] was at most 16 mg/L throughout.
Take `C=C[C@H](N)CCCc1cc(Cl)c(F)c(-c2cc3cn(-c4ccc([C@@H]5CCC[C@@H](CCOC(=N)N)N5C)cc4)c(=O)nc3[nH]2)c1` [Compound 18]: the MIC in assay [1] and in assay [2] was at most 16 mg/L throughout.
Regarding `C=CCN1[C@H](CCOC(=N)N)CCC[C@H]1c1ccc(-n2cc3cc(-c4cc(CCC[C@H](C)N)cc(Cl)c4F)[nH]c3nc2=O)cc1` [Compound 13], the MIC in assay [1] and in assay [2] was at most 16 mg/L each time.
Consider `COC(=N)NCC[C@@H]1CCC[C@@H](c2ccc(-n3cc4cc(-c5cc(CCC[C@H](C)N)cc(Cl)c5F)[nH]c4nc3=O)cc2)N1` [Compound 20], for which the MIC in assay [1] and in assay [2] was at most 16 mg/L in each case.
For the compound `COC(=O)CN1[C@H](CCOC(=N)N)CCC[C@H]1c1ccc(-n2cc3cc(-c4cc(CCC[C@H](C)N)cc(Cl)c4F)[nH]c3nc2=O)cc1` [Compound 11], the MIC in assay [1] and in assay [2] was at most 16 mg/L each time.
For `C[C@H](N)CCCc1cc(Cl)c(F)c(-c2cc3cn(-c4ccc([C@@H]5CCC[C@@H](CCOC(=N)N)N5C)cc4)c(=O)nc3[nH]2)c1` [Compound 2], the MIC in assay [1] and in assay [2] was at most 16 mg/L throughout.
`CCCN1[C@H](CCOC(=N)N)CCC[C@H]1c1ccc(-n2cc3cc(-c4cc(CCC[C@H](C)N)cc(Cl)c4F)[nH]c3nc2=O)cc1` [Compound 7]: the MIC in assay [1] and in assay [2] was at most 16 mg/L throughout.
For `C[C@H](N)CCCc1cc(Cl)c(F)c(-c2cc3cn(-c4ccc([C@@H]5CCC[C@@H](CCOC(=N)N)N5C5CC5)cc4)c(=O)nc3[nH]2)c1` [Compound 16], the MIC in assay [1] and in assay [2] was at most 16 mg/L throughout.
Take `C[C@H](N)CCCc1cc(Cl)c(F)c(-c2cc3cn(-c4ccc([C@@H]5CCC[C@@H](CCOC(=N)N)N5CCCF)cc4)c(=O)nc3[nH]2)c1` [Compound 3]: the minimal inhibitory concentration (MIC) in assay [1] and in assay [2] was at most 16 mg/L each time.
Take `CCN1[C@H](CCOC(=N)N)CCC[C@H]1c1ccc(-n2cc3cc(-c4cc(CCC[C@H](C)N)cc(Cl)c4F)[nH]c3nc2=O)cc1` [Compound 14]: the minimum inhibitory concentration (MIC) in assay [1] and in assay [2] was at most 16 mg/L throughout.
As to `CN1[C@H](CCOC(=N)N)CCC[C@H]1c1ccc(-n2cc3cc(-c4cc(CCC[C@@H](N)C5CC5)cc(Cl)c4F)[nH]c3nc2=O)cc1` [Compound 17], the MIC in assay [1] and in assay [2] was at most 16 mg/L in each case.
For `CN1[C@H](CCOC(=N)N)CCC[C@H]1c1ccc(-n2cc3cc(-c4cc(CCC[C@@H](N)COC(=N)N)cc(Cl)c4F)[nH]c3nc2=O)cc1` [Compound 19], the MIC in assay [1] and in assay [2] was at most 16 mg/L in each case.
With `C[C@H](N)CCCc1cc(Cl)c(F)c(-c2cc3cn(-c4ccc([C@@H]5CCC[C@@H](CCOC(=N)N)N5CCCO)cc4)c(=O)nc3[nH]2)c1` [Compound 12], the MIC in assay [1] and in assay [2] was at most 16 mg/L throughout.

These data come from patent US12297201B2, “Substituted pyrrolo[2,3-d]pyrimidines as antimicrobials” (BIOVERSYS AG, priority 2018, dated 2025).
